From the supplement of paper PMC10307832

Assays:
Assay in all cases: relative viability (nuclei count vs DMSO), 5 days (fraction); higher = more cells survive
Cediranib + Trametinib = compound: COc1cc2c(Oc3ccc4[nH]c(C)cc4c3F)ncnc2cc1OCCCN1CCCC1 [Cediranib] + CC(=O)Nc1cccc(-n2c(=O)n(C3CC3)c(=O)c3c(Nc4ccc(I)cc4F)n(C)c(=O)c(C)c32)c1 [Trametinib] (partner 0.02 µM)
Summary of the method: (§1)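 Medians of duplicate plates are given as relative viability. That measure is the nuclei count in treated wells divided by the count in vehicle wells. Counts were taken on 4× images of lung cancer cell lines in 1536-well plates, 5 days after pin-tool dosing the day after seeding with one drug alone or a fixed anchor-drug dose plus five library-drug doses (not always all listed) in √10 steps.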

Decitabine + Navitoclax = compound: Nc1ncn([C@H]2C[C@H](O)[C@@H](CO)O2)c(=O)n1 [Decitabine] + CC1(C)CCC(c2ccc(Cl)cc2)=C(CN2CCN(c3ccc(C(=O)NS(=O)(=O)c4ccc(N[C@H](CCN5CCOCC5)CSc5ccccc5)c(S(=O)(=O)C(F)(F)F)c4)cc3)CC2)C1 [Navitoclax] (partner 0.5 µM)
Summary of the method: as §1

[1] = compound: O=C(C[C@H]1NCCC[C@@H]1O)Cn1cnc2cc(Br)c(Cl)cc2c1=O (racemic) [Halofuginone] + Cc1cc(Nc2cc(N3CCN(C)CC3)nc(Sc3ccc(NC(=O)C4CC4)cc3)n2)n[nH]1 [Tozasertib] (partner 0.1 µM)
Summary of the method: as §1

[2] = compound: O=C(C[C@H]1NCCC[C@@H]1O)Cn1cnc2cc(Br)c(Cl)cc2c1=O (racemic) [Halofuginone] + C[C@@H](Oc1cc(-c2cnn(C3CCNCC3)c2)cnc1N)c1c(Cl)ccc(F)c1Cl [Crizotinib] (partner 1 µM)
Summary of the method: as §1

## RERF-LC-KJ
Cediranib + Trametinib; first compound 0.04 µM
  relative viability: 0.875
Cediranib + Trametinib; first compound 0.1265 µM
  relative viability: 0.902
Cediranib + Trametinib; first compound 0.4 µM
  relative viability: 0.839
Cediranib + Trametinib; first compound 1.265 µM
  relative viability: 0.762
Cediranib + Trametinib; first compound 4 µM
  relative viability: 0.985
Decitabine + Navitoclax; first compound 0.04 µM
  relative viability: 0.779
Decitabine + Navitoclax; first compound 0.1265 µM
  relative viability: 0.844
Decitabine + Navitoclax; first compound 0.4 µM
  relative viability: 0.279
Decitabine + Navitoclax; first compound 1.265 µM
  relative viability: 0.597
Decitabine + Navitoclax; first compound 4 µM
  relative viability: 0.618
[1]; first compound 0.001 µM
  relative viability: 0.549
[1]; first compound 0.003162 µM
  relative viability: 0.484
[1]; first compound 0.01 µM
  relative viability: 0.468
[1]; first compound 0.03162 µM
  relative viability: 0.456
[1]; first compound 0.1 µM
  relative viability: 0.346
[2]; first compound 0.001 µM
  relative viability: 0.888
[2]; first compound 0.003162 µM
  relative viability: 0.791
[2]; first compound 0.01 µM
  relative viability: 0.807
[2]; first compound 0.03162 µM
  relative viability: 0.818
[2]; first compound 0.1 µM
  relative viability: 0.823

## SK-LU-1
Cediranib + Trametinib; first compound 0.04 µM
  relative viability: 0.547
Cediranib + Trametinib; first compound 0.1265 µM
  relative viability: 0.377
Cediranib + Trametinib; first compound 0.4 µM
  relative viability: 0.445
Cediranib + Trametinib; first compound 1.265 µM
  relative viability: 0.381
Cediranib + Trametinib; first compound 4 µM
  relative viability: 0.481
Decitabine + Navitoclax; first compound 0.04 µM
  relative viability: 0.262
Decitabine + Navitoclax; first compound 0.1265 µM
  relative viability: 0.385
Decitabine + Navitoclax; first compound 0.4 µM
  relative viability: 0.23
Decitabine + Navitoclax; first compound 1.265 µM
  relative viability: 0.335
Decitabine + Navitoclax; first compound 4 µM
  relative viability: 0.282
[1]; first compound 0.001 µM
  relative viability: 0.367
[1]; first compound 0.003162 µM
  relative viability: 0.381
[1]; first compound 0.01 µM
  relative viability: 0.34
[1]; first compound 0.03162 µM
  relative viability: 0.313
[1]; first compound 0.1 µM
  relative viability: 0.171
[2]; first compound 0.001 µM
  relative viability: 1.25
[2]; first compound 0.003162 µM
  relative viability: 0.978
[2]; first compound 0.01 µM
  relative viability: 0.836
[2]; first compound 0.03162 µM
  relative viability: 0.927
[2]; first compound 0.1 µM
  relative viability: 0.325

## SK-MES-1
Cediranib + Trametinib; first compound 0.04 µM
  relative viability: 0.606
Cediranib + Trametinib; first compound 0.1265 µM
  relative viability: 0.553
Cediranib + Trametinib; first compound 0.4 µM
  relative viability: 0.52
Cediranib + Trametinib; first compound 1.265 µM
  relative viability: 0.527
Cediranib + Trametinib; first compound 4 µM
  relative viability: 0.562
Decitabine + Navitoclax; first compound 0.04 µM
  relative viability: 0.976
Decitabine + Navitoclax; first compound 0.1265 µM
  relative viability: 0.84
Decitabine + Navitoclax; first compound 0.4 µM
  relative viability: 0.501
Decitabine + Navitoclax; first compound 1.265 µM
  relative viability: 0.33
Decitabine + Navitoclax; first compound 4 µM
  relative viability: 0.303
[1]; first compound 0.001 µM
  relative viability: 1.03
[1]; first compound 0.003162 µM
  relative viability: 0.926
[1]; first compound 0.01 µM
  relative viability: 0.754
[1]; first compound 0.03162 µM
  relative viability: 0.647
[1]; first compound 0.1 µM
  relative viability: 0.168
[2]; first compound 0.001 µM
  relative viability: 1.02
[2]; first compound 0.003162 µM
  relative viability: 1.01
[2]; first compound 0.01 µM
  relative viability: 0.863
[2]; first compound 0.03162 µM
  relative viability: 0.778
[2]; first compound 0.1 µM
  relative viability: 0.302

## SW 1573
Cediranib + Trametinib; first compound 0.04 µM
  relative viability: 0.667
Cediranib + Trametinib; first compound 0.1265 µM
  relative viability: 0.624
Cediranib + Trametinib; first compound 0.4 µM
  relative viability: 0.57
Cediranib + Trametinib; first compound 1.265 µM
  relative viability: 0.55
Cediranib + Trametinib; first compound 4 µM
  relative viability: 0.496
Decitabine + Navitoclax; first compound 0.04 µM
  relative viability: 1.15
Decitabine + Navitoclax; first compound 0.1265 µM
  relative viability: 0.89
Decitabine + Navitoclax; first compound 0.4 µM
  relative viability: 0.687
Decitabine + Navitoclax; first compound 1.265 µM
  relative viability: 0.356
Decitabine + Navitoclax; first compound 4 µM
  relative viability: 0.217
[1]; first compound 0.001 µM
  relative viability: 0.242
[1]; first compound 0.003162 µM
  relative viability: 0.192
[1]; first compound 0.01 µM
  relative viability: 0.111
[1]; first compound 0.03162 µM
  relative viability: 0.129
[1]; first compound 0.1 µM
  relative viability: 0.121
[2]; first compound 0.001 µM
  relative viability: 1.03
[2]; first compound 0.003162 µM
  relative viability: 0.915
[2]; first compound 0.01 µM
  relative viability: 0.803
[2]; first compound 0.03162 µM
  relative viability: 0.574
[2]; first compound 0.1 µM
  relative viability: 0.195
